Tests used:
Assay type in all cases: cell-based
[1] = biological target: T1, hTRPA1 (Homo sapiens, UniProt O75762); assay: Live-cell calcium imaging (Fura-2) of TRPA1 activation in TREx 293 cells
T1 construct: expressed in transfected cells; host or cells: TREx 293 cells, pcDNA4/TO vector, doxycycline-induced
Procedure: rTRPV1 or hTRPA1 were stably expressed in TREx 293 cells following the manufacturer's protocol (Invitrogen, MA, USA). Briefly, TREx host cell line (Invitrogen, MA, USA) was transfected with pcDNA4/TO containing the gene of interest using Mirus LT1 transfection reagent (Mirus Bio, WI, USA) with Opti-MEM I Reduced Serum Medium (Invitrogen, MA, USA). Successful recombination and maintenance were confirmed through zeocin (500 μg/ml; Invivogen, Toulouse, France) selection to establish a stably-transfected cell line. Cells were grown in DMEM (Sigma-Aldrich, MO, USA) supplemented with 10% FBS, 1% penicillin-streptomycin, 2 mM L-alanine L-glutamine, and 25 mM HEPES (pH 7.3) supplemented with 5 μg/ml blasticidin at 37° C. and 5% CO2. Cells were passaged twice per week. Three hours before analysis, cells were treated with doxycycline (0.2-1 μg/ml) to induce transgene expression.
Flip-in TREX293T cells were spotted at PDL (0.2 mg/ml)-coated imaging chambers (μ-slide, 8-well; Ibidi, Martinsried, Germany) and incubated for 1.5-2 h in a humidified incubator at 37° C. and 5% CO2. Cells were loaded with 3 μg/ml Fura-2 AM (Thermo Fisher Scientific) dissolved in Ringer solution. The imaging chamber was placed onto the inverted microscope (IX70; Olympus, Tokyo, Japan). Cells were illuminated with a 175W xenon arc lamp, and excitation wavelengths (340/380 nm) were selected by a Lambda DG-4 monochromatic wavelength changer (Sutter Instrument, Novato, CA, USA). Intracellular Ca2+ concentration was measured by digital video microfluorometry illuminated interline CCD camera (Exi Blue; QImaging, Surrey, BC, Canada) using MetaFluor fluorescence ratio imaging software (Molecular Devices). Dual images (340 and 380 nm excitation, 510 nm emission) were collected, and pseudocolor ratio-metric images were monitored every 4 s during the experiment. Data analysis was performed with MetaFluor fluorescence ratio imaging software. Data are presented as a normalized intensity of baseline fluorescence. All experiments were carried out at room temperature.
Data for THC (leftmost column) and for THC with a 1/10 concentration of a terpene are presented. Response amplitudes are normalized to the maximal activation obtained by administration of Allyl Isothiocyanate (AITC). Numbers in parentheses represent p values for the comparison of the TRPA1 activation for THC and for THC plus a 1/10 concentration terpene.

[2] = biological target: T2, GIRK channel (Homo sapiens, UniProt P48051+P48549); assay: Receptor-independent effect on GIRK current in oocytes expressing the GIRK channel but not the CB1 receptor
T2 construct: expressed in transfected cells; host or cells: Xenopus laevis oocytes injected with cRNA
T2 sequence (P48549 1-501): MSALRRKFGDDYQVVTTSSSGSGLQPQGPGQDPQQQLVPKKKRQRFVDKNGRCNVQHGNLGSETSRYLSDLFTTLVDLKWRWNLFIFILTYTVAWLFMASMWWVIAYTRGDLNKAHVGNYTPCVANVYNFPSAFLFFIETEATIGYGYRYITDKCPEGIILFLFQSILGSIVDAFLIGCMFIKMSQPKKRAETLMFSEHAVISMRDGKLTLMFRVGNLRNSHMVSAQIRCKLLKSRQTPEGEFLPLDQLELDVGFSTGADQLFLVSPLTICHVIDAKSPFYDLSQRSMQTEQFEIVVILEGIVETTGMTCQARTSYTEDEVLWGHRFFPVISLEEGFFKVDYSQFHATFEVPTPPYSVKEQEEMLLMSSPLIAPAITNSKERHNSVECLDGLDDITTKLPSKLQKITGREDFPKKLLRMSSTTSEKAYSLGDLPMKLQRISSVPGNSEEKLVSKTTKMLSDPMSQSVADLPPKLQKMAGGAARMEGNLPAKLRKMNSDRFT
T2 sequence (P48051 1-423): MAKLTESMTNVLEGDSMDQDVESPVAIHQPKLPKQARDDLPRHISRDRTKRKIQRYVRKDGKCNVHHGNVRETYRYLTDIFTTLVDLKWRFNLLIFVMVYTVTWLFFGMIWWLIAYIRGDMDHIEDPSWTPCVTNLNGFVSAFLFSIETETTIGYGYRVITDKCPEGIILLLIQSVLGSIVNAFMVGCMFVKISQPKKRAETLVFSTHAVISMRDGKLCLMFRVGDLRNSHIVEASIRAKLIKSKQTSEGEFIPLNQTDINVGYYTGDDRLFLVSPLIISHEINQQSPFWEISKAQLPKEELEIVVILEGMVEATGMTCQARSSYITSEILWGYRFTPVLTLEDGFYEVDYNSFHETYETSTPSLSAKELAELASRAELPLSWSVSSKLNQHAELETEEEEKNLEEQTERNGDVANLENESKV
Procedure: To do so, the effect of THC and a panel of various terpenes was measured on oocytes expressing the GIRK channel but not the CB1 receptor.

[3] = biological target: T3, CB1 receptor (Homo sapiens, UniProt P21554); assay: CB1 receptor activation by THC in combination with terpenes, Xenopus oocyte GIRK current; conditions: terpene:THC weight/weight ratio 1:10; ratio of THC concentrations evoking 50% of maximal response with and without terpene
T3 construct: expressed in transfected cells; host or cells: Xenopus laevis oocytes injected with cRNA
T3 sequence (P21554 whole entry): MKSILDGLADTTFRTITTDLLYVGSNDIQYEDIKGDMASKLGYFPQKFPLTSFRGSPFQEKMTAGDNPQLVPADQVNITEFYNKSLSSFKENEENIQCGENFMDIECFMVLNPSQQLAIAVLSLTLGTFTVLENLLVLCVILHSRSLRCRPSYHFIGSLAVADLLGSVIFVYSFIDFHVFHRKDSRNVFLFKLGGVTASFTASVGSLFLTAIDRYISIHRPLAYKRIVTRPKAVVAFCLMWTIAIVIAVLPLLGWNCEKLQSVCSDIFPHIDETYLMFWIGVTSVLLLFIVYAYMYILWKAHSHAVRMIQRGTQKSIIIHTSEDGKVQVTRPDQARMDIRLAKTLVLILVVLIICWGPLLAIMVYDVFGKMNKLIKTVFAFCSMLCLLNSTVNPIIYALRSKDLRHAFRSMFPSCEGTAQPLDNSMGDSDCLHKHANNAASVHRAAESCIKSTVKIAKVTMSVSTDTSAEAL
Procedure: Xenopus oocytes were used as a functional expression system, as described in Example 1.
Terpenes were administered together with tetrahydrocannabinol (THC) at a terpene to THC weight/weight ratio in the range between 0.05:1 and 1:1.
Augmented activation was given as fold change. Fold change in potency is given as the ratio between the THC concentration required to evoke 50% of the maximal response in the presence of terpene and the THC concentration that evoked the same response in the absence of terpene.

[4] = biological target: T3, CB1 receptor; assay: CB1 receptor activation by terpenes, CB1-mediated GIRK currents in Xenopus oocytes (two-electrode voltage clamp); conditions: 10 μM terpene alone; response amplitude normalized to response obtained with 10 μM THC; Xenopus oocytes expressing CB1, GIRK1/2, Gαi3
Procedure: To test the possibility that the presence of various terpenes affects the activation of the CB1 receptor, the Inventors used Xenopus oocytes as a functional expression system. To this end, Xenopus oocytes were injected with cRNAs of proteins involved in the pathway leading to activation of K+ currents by CB1 receptor via βγ subunits of the G-proteins: The CB1 receptor, the two subunits of the GIRK channel (GIRK1 and GIRK2), and the Gαi3 subunit.
cDNA plasmids of the two subunits (GIRK1 and GIRK2) of the G protein-coupled inwardly-rectifying potassium (GIRK) receptor, the CB1 receptor, and the α subunit of the G-protein (Gαi3) were linearized with the appropriate restriction enzymes. The linearized plasmids were transcribed in vitro using a standard procedure.
X. laevis oocytes were isolated and incubated in NDE96 solution composed of ND96 (in mM: 96 NaCl, 2 KCl, 1 CaCl2, 1 MgCl2, 5 Hepes, with pH adjusted to 7.5 with NaOH) with the addition of 2.5 mM Na+ pyruvate, 100 units/ml penicillin, and 100 μg/ml streptomycin. A day after their isolation, the oocytes were injected with the relevant cRNAs. cRNAs of CB1 receptor (2 ng) and GIRK1 and GIRK2 (200 pg each) were injected. In addition, cRNA of Gαi3 (1000 pg) was injected to decrease the basal GIRK current (IK) and to improve the relative activation by the agonist (17).
Currents were measured 3-5 days after cRNA injection and were recorded using the standard two-electrode voltage clamp technique (Axoclamp 2B amplifier, Axon Instruments, Foster City, CA). Each oocyte was placed in the recording bath containing ND96 solution and was impaled with two electrodes pulled from 1.5-mm Clark capillaries (CEI, Pangboure, England). Both electrodes were filled with 3M KCl solution and the electrodes resistances were between 1-5 MΩ). The CB1-mediated GIRK currents were measured in a 24 mM K+ solution (in mM: 72 NaCl, 24 KCl, 1 CaCl2, 1 MgCl2, 5 Hepes, with pH adjusted to 7.5 with KOH). pCLAMP10 software (Axon Instruments) was used for data acquisition and analysis.
Next, the dependence of the THC-induced K+ current (ITHC) on THC concentration (dose-response) was measured. The oocyte was voltage-clamped to-80 mV in a low K+ (2 mM K+) solution, ND96. Basal GIRK current (IK) was developed upon replacement of the ND96 by the 24 mM K+ solution. This current represents the basal activation of GIRK channel by endogenous βγ subunits present in the oocytes. Then, five concentrations of THC were applied sequentially, giving rise to ITHC. This current was terminated upon washout of THC. Employing this basic experimental protocol, a full dose-response curve was constructed. To be able to compare between oocytes, ITHC at any particular THC concentration was normalized to ITHC obtained at a 10 μM, defined as the reference response.
Next, the effect of terpenes on CB1 activation was assessed.
Response amplitudes were normalized to the response obtained with 10 μM THC.

[5] = 30 μM THC with a 1/10 concentration of the terpene
[6] = 8 μM THC with a 1/10 concentration of the terpene

T1 sequence (O75762 whole entry): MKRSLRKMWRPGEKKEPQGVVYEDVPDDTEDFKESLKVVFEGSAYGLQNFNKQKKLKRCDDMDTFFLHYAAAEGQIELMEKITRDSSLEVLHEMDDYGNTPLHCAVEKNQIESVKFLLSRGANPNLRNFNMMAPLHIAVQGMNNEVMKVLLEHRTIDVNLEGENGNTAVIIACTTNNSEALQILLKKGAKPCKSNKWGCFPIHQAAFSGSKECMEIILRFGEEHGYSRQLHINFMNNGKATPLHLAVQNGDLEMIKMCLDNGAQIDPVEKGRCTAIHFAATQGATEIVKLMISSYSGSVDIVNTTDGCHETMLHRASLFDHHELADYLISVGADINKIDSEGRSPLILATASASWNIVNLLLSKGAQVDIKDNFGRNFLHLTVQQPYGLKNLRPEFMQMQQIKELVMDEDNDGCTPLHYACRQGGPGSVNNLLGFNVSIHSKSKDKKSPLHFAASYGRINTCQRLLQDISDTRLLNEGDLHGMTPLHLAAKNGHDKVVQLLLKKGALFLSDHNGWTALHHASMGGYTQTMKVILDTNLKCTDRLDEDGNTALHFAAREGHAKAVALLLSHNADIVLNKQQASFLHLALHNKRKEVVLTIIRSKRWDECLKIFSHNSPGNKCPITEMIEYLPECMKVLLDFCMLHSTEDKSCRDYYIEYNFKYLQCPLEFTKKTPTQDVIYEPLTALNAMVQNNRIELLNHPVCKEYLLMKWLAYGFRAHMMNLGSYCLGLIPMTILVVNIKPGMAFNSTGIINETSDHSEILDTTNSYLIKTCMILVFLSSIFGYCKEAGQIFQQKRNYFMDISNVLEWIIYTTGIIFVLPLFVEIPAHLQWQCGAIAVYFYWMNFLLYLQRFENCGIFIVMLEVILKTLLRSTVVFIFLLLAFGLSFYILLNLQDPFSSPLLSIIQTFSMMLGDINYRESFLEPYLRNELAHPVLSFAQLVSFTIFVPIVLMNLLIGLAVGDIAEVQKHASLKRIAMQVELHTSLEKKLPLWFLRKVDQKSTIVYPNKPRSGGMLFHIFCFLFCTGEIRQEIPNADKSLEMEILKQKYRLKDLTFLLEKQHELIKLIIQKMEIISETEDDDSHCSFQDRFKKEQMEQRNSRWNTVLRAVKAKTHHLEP

Q: CC(C)=CCCC(C)=CC=O [Citral] was tested. Which “TRPA1 response amplitude normalized to maximal activation by AITC” value [1, 5] did it give?
A: Its value is 0.96.

Q: CC1CCC(C(C)C)C(O)C1 (centres unmarked) [Menthol] was tested. Which “TRPA1 response amplitude normalized to maximal activation by AITC” value [1, 6] did it give?
A: The value was 0.44.

Q: Which results are given for CCCCCc1cc(O)c2c(c1)OC(C)(C)[C@@H]1CCC(C)=C[C@@H]21 [THC, tetrahydrocannabinol, reference compound]?
A: TRPA1 response amplitude normalized to maximal activation by AITC ([1]; 8 μM THC alone): 0.35; TRPA1 response amplitude normalized to maximal activation by AITC ([1]; 30 μM THC alone): 0.8; Effect on the GIRK current [2]: None of these compounds showed an effect on the GIRK current

Q: How did the “Fold change of THC potency by terpene, at terpene:THC ratio of 1:10” value (shortened to “Fold change … at terpene:THC ratio of 1:10”) [3] turn out when CC1(C)C2CCC1(C)C(O)C2 (centres unmarked) [borneol] was run?
A: Its value is 4.469.

Q: What does the source list for CC12CCC(CC1)C(C)(C)O2 [eucalyptol]?
A: Response to 10 μM terpene [4]: 0.41 ± 0.04; TRPA1 response amplitude normalized to maximal activation by AITC [1, 6]: 0.48; TRPA1 response amplitude normalized to maximal activation by AITC [1, 5]: 0.93

Q: What does the source list for CC(C)=CCC/C(C)=C/CO [geraniol]?
A: Response to 10 μM terpene [4]: 0.31 ± 0.08; Fold change of THC potency by terpene, at terpene:THC ratio of 1:10 [3]: 1.576

Q: How did the “Response to 10 μM terpene” value [4] turn out when C=C(C)[C@H]1CC=C(C)CC1 [limonene] was run?
A: Its value is 0.23 ± 0.02.

Q: What about the “Fold change … at terpene:THC ratio of 1:10” value [3] of the same compound?
A: The value was 3.369.

Q: Which results are given for C=CC(C)(O)CCC=C(C)C (centres unmarked) [linalool]?
A: Fold change of THC potency by terpene, at terpene:THC ratio of 1:10 [3]: 1.553; TRPA1 response amplitude normalized to maximal activation by AITC [1, 6]: 0.44; TRPA1 response amplitude normalized to maximal activation by AITC [1, 5]: 0.93

Q: For C=CC(=C)CCC=C(C)C [myrcene], which “Response to 10 μM terpene” value [4] is on record?
A: The value was 0.26 ± 0.07.

Q: For C=CC(C)=CCC=C(C)C [ocimene], which “Response to 10 μM terpene” value [4] is on record?
A: Its value is 0.36 ± 0.05.

Q: And the “Fold change … at terpene:THC ratio of 1:10” value [3]?
A: Its value is 2.639.

Q: How did the “Fold change … at terpene:THC ratio of 1:10” value [3] turn out when C=C1CCC2(C(C)C)CC12 (centres unmarked) [sabinene] was run?
A: Its value is 1.685.

Q: With CC1=CCC(=C(C)C)CC1 [terpinolene] as the compound, how does the “Response to 10 μM terpene” value [4] read?
A: The value was 0.45 ± 0.02.

Q: With CC1=CCC2CC1C2(C)C (stereo not drawn) [α-pinene] as the compound, how does the “Response to 10 μM terpene” value [4] read?
A: Its value is 0.29 ± 0.03.

Q: With C=C1CCC2CC1C2(C)C (stereo not drawn) [β-pinene] as the compound, how does the “Response to 10 μM terpene” value [4] read?
A: The value was 0.29 ± 0.06.

— patent US20240366634A1, “METHODS FOR THE TREATMENT OF CB1-, TRPA1- AND TRPV1-DEPENDENT CONDITIONS” (BUZZELET DEVELOPMENT AND TECHNOLOGIES LTD., priority 2021, published 2024)
